{"source": "paper PMC12458024", "about": "“Stabilizing a Native Fold of Alpha-Synuclein with Short Helix-Constrained Peptides” (JACS Au, 2025)", "key": {"[1]": {"target": "T1, αS1–140 (Homo sapiens, UniProt P37840)", "T1 construct": "pET21a plasmid encoding human wild-type αS1–140; made in house; host or cells: E. coli BL21 (DE3)", "experiment": "Lipid-induced αS aggregation assay (ThT kinetics)", "type": "biochemical", "conditions": "100 μM αS1–140, 50 μM ThT, 50 μM DMPS SUVs, 20 mM phosphate pH 6.5, 30 °C; peptide 100 and 500 μM; n = 3", "method": "Dry DMPS lipid powder was accurately weighed using a Sartorius ultramicro balance and dissolved in 20 mM sodium phosphate buffer (pH 6.5) to a final concentration of 2 mM. The lipid was solubilized by shaking in a 2 mL Eppendorf tube on a Thermomixer compact (Eppendorf) at 45 °C, 1400 rpm for 3 h. The solution was then freeze–thawed five times using dry ice and a thermomixer (45 °C, 500 rpm). Vesicle formation was completed by sonication, using a Bandelin Sonopuls sonicator equipped with a TS102 probe, set to 20% amplitude, for 15 cycles (30 s on/30 s off). Vesicles were freshly prepared on the day of use. The SUVs prepared have an average diameter of approximately 30–40 nm, as characterized by dynamic light scattering (DLS) as previously described. This corresponds to vesicle concentrations in the low micromolar range.\nLipid-induced aggregation experiments were monitored using a CLARIOstar fluorescence microplate reader (BMG Labtech) under quiescent conditions (no shaking) at 30 °C. Experiments were conducted in black, clear-bottom 96-well half-area polystyrene plates with a nonbinding surface (Corning #3881), sealed with aluminum Thermowell sealing tape (Corning #6570). Each well contained 100 μL of reaction volume, run in triplicate, comprising 100 μM αS, 50 μM ThT, 50 μM DMPS (monomeric equivalent), 0.01% sodium azide, and varying concentrations of peptide (0 μM to 1 mM), all in 20 mM phosphate buffer (pH 6.5).\nInstrument settings included a focal height of 4.9 mm and a gain of 800, with an excitation filter of 440 ± 15 nm, an emission filter of 480 ± 15 nm, and a 460 nm dichroic cutoff. Readings were collected from the bottom optic using a spiral averaging (4 mm diameter) with 50 flashes per well, and measurements were taken every 1200 s. The outer wells of the plate were not used to avoid evaporation"}, "[2]": {"experiment": "Circular dichroism: fractional helicity with and without DMPS SUVs (lipid binding)", "type": "physicochemical", "conditions": "CD, 20 μM peptide, 20 mM phosphate buffer pH 6.5, 30 °C, mean of three independent measurements; for Fractional helicity (fH) with DMPS: 1000 μM DMPS vesicles; for Fractional helicity (fH) no DMPS: no lipid", "method": "Far UV CD spectra scans were then recorded of the solutions on a Chirascan V100 (Applied Photophysics), at 30 °C, in a 1 mm path length quarts cuvette, scanning from 280–190 nm with a 1 nm bandwidth, averaged over 3 scans and blanked against the solutions containing the relevant DMPS vesicles in 20 mM phosphate buffer (pH 6.5).\nFractional helicity (fH) was calculated according to the equation fH=(θ222−θc)/(θ222∞−θc) where θ222∞ = (−44,000 + 250T)*(1 – k/Nr) and θc = 2220 – 53T. In these equations, the wavelength-dependent constant k = 2.4, Nr = the number of residues, and T is the temperature, 30 °C. ,"}, "[3]": {"experiment": "circular dichroism", "conditions": "20 mM phosphate; pH 6.5; 30 °C; 20 uM"}, "[4]": {"tested_on": "SH-SY5Y cells", "experiment": "ToxiLight toxicity assay", "type": "cell-based, human", "conditions": "0–20 μM RhoB-labeled peptide, 30–36 h, Triton X-100 positive control", "method": "(§1) SH-SY5Y cells were plated at a density of 5,000 cells well^–1 in a half-area 96-well plate. Twenty-four hours after plating, the media was removed and replaced with media containing 10 or 20 μM of rhodamine-B labeled peptide or the equivalent volume of PBS. Cells were incubated with peptides for a further 30–36 h. As a positive control for cell lysis, 3 wells of cells were treated with 5% Triton-X 100 for 20 min, and then 20 μL of media was harvested from all wells for ToxiLight analysis according to the manufacturer’s instructions (Lonza Biologics PLC, LT07–217). Cells were then washed once with PBS and incubated for 90 min with a 1:10 dilution of AlamarBlue reagent (Invitrogen, DAL1025). Media was harvested and the fluorescence measured according to the manufacturer’s instructions. Cells were then washed twice with PBS and incubated with a 1:12.5 dilution of NucBlue (ThermoFisher Scientific, R37605) and a 1:500 dilution of CellTracker Deep Red (Invitrogen, C34565) in media for a further 30 min. Cells were then washed 2 more times in PBS and imaged."}, "[5]": {"tested_on": "N2 C. elegans", "conditions": "dosed at L4, 0–100 μM, day 5 of adulthood", "protocol": "The C. elegans strain N2 was used as the control, while the transgenic strain NL5901 (unc-54p::αS::YFP), which expresses αS fused to YFP in the body wall muscle cells, was used to model the PD motility phenotype. Worms were synchronized by bleaching with sodium hypochlorite, and the eggs were resuspended in M9 buffer and incubated overnight at 20 °C with shaking (50 rpm) to hatch. Larvae were then transferred to nematode growth medium (NGM) agar plates seeded with E. coli OP50 as a food source and incubated in the dark at 20 °C until they reached the L4 stage.\nL4-stage worms were transferred to fresh NGM agar plates containing 75 μM 5-fluoro-2’deoxyuridine (FUdR), to prevent reproduction, and seeded with E. coli OP50 as a food source. […] Nematodes were incubated in the dark at 20 °C for 5 days. Following incubation, 15 worms per condition were picked using a worm pick and placed in a drop of M9 media on a microscope slide. Movements were recorded immediately for a period of 30 s. For each condition, 5 worms per video were manually scored for the number of body bends per minute. […] A body bend was defined as a full oscillation, where the head returned to a point on the same side."}, "[6]": {"experiment": "Peptide stability in human serum", "type": "in vitro ADME", "conditions": "normal human serum, 30 μM peptide, 37 °C, analytical HPLC peak area normalized to t = 0, triplicate; read-out: Peptide remaining intact in human serum at 48 h", "method": "Serum stability assays were performed in normal human serum. Peptide stocks were initially prepared at 600 μM in H2O, and 75 μL of this stock was added to 1425 μL of normal human serum (Merck), yielding a final concentration of 30 μM. Samples were incubated at 37 °C, and 100 μL aliquots were collected at designated time points (0, 1, 2, 3, 4, 6, 22, 24, and 48 h) and then immediately stored at −80 °C. After all time points, the samples were thawed and mixed with 300 μL of acetonitrile:water (3:1, v/v) by vortexing to ensure complete mixing. Following centrifugation at 14500 rpm for 20 min, 200 μL of the supernatant was analyzed by HPLC using a Phenominex Luna 5 μm C18 100 Å analytical column, eluted with a 0–50% acetonitrile gradient containing 0.1% TFA. Peak areas were integrated and normalized to the 0-h sample. Each peptide was tested in triplicate."}, "[7]": {"tested_on": "SH-SY5Y cells", "experiment": "Alamar Blue toxicity assay", "type": "cell-based, human", "conditions": "0–20 μM RhoB-labeled peptide, 30–36 h, relative to untreated controls", "method": "as §1"}}, "note": "Entries after “also recorded” stand apart in the source; their conditions may differ. Positions of bridges follow the written chain, without caps; N, C: chain ends. Residues, ends and D or L forms follow the SMILES beside them.", "data": [{"smiles": "CC(=O)N[C@@H](CC(=O)O)C(=O)N[C@H](C(=O)N[C@@H](Cc1ccccc1)C(=O)N[C@H]1CCCCNC(=O)C[C@@H](C(=O)N[C@@H](CCCCN)C(=O)N[C@@H](C)C(=O)N[C@@H](CCCCN)C(N)=O)NC(=O)[C@H](CC(C)C)NC(=O)CNC(=O)[C@H](CCCCN)NC1=O)C(C)C", "note": "[αS2–12(L4)] (Ac-DVFKKGLDKAK-NH2; lactam 4-8)", "values": [{"measurement": "Effect on lipid-induced αS1–140 aggregation (ThT)", "setting": "[1]", "value": "enhanced αS aggregation"}, {"measurement": "Fractional helicity (fH) with DMPS", "setting": "[2]", "value": 27.7, "unit": "%"}, {"measurement": "Fractional helicity (fH) no DMPS", "setting": "[2]", "value": 12.4, "unit": "%"}]}, {"smiles": "CSCC[C@H](NC(=O)[C@H](Cc1ccccc1)NC(=O)[C@@H](NC(=O)[C@H](CC(=O)O)NC(C)=O)C(C)C)C(=O)N[C@H]1CCCCNC(=O)C[C@@H](C(=O)N[C@@H](C)C(=O)N[C@@H](CCCCN)C(N)=O)NC(=O)[C@H](CO)NC(=O)[C@H](CC(C)C)NC(=O)CNC1=O", "note": "[αS2–12(L5)] (Ac-DVFMKGLSDAK-NH2; lactam 5-9)", "values": [{"measurement": "Fractional helicity (fH) with DMPS", "setting": "[2]", "value": 3.3, "unit": "%"}, {"measurement": "Fractional helicity (fH) no DMPS", "setting": "[2]", "value": 28.9, "unit": "%"}]}, {"smiles": "CSCC[C@H](NC(=O)[C@H](Cc1ccccc1)NC(=O)[C@@H](NC(=O)[C@H](CC(=O)O)NC(C)=O)C(C)C)C(=O)N[C@@H](CCCCN)C(=O)NCC(=O)N[C@@H](CC(C)C)C(=O)N[C@@H](CO)C(=O)N[C@@H](CCCCN)C(=O)N[C@@H](C)C(=O)N[C@@H](CCCCN)C(N)=O", "note": "(Ac-DVFMKGLSKAK-NH2)", "values": [{"measurement": "helicity", "setting": "[3]", "value": 8.1, "unit": "%"}]}, {"smiles": "CSCC[C@H](NC(=O)[C@H](Cc1ccccc1)NC(=O)[C@@H](NC(=O)[C@H](CC(=O)O)NC(C)=O)C(C)C)C(=O)N[C@@H](CCCCN)C(=O)N[C@H]1CCCCNC(=O)C[C@@H](C(=O)N[C@@H](CCCCN)C(N)=O)NC(=O)[C@H](CCCCN)NC(=O)[C@H](CO)NC(=O)[C@H](CC(C)C)NC1=O", "note": "[αS2–12(L6)] (Ac-DVFMKKLSKDK-NH2; lactam 6-10)", "values": [{"measurement": "helicity", "setting": "[3]", "value": 31.4, "unit": "%"}, {"measurement": "Cytotoxicity, ToxiLight", "setting": "[4]", "value": "No significant toxicity"}, {"measurement": "Thrashing rate of wild-type N2 worms", "setting": "[5]", "value": "no change in thrashing rate"}, {"measurement": "remaining at 48 h, 30 μM", "setting": "[6]", "value": 16, "unit": "%"}, {"measurement": "Cytotoxicity, Alamar Blue", "setting": "[7]", "value": "No significant toxicity"}]}, {"smiles": "CSCC[C@@H]1NC(=O)[C@H](Cc2ccccc2)NC(=O)[C@@H](NC(=O)[C@H](CC(=O)O)NC(C)=O)CCCCNC(=O)C[C@@H](C(=O)N[C@@H](CC(C)C)C(=O)N[C@@H](CO)C(=O)N[C@@H](CCCCN)C(=O)N[C@@H](C)C(=O)N[C@@H](CCCCN)C(N)=O)NC(=O)[C@H](CCCCN)NC1=O", "note": "[αS2–12(L2)] (Ac-DKFMKDLSKAK-NH2; lactam 2-6)", "values": [{"measurement": "Effect on lipid-induced αS1–140 aggregation (ThT)", "setting": "[1]", "value": "most effective inhibition"}, {"measurement": "Fractional helicity (fH) with DMPS", "setting": "[2]", "value": 14.5, "unit": "%"}, {"measurement": "Fractional helicity (fH) no DMPS", "setting": "[2]", "value": 30.9, "unit": "%"}]}, {"smiles": "CSCC[C@@H]1NC(=O)[C@@H](NC(=O)[C@@H](NC(=O)[C@H](CC(=O)O)NC(C)=O)C(C)C)CCCCNC(=O)C[C@@H](C(=O)N[C@@H](CO)C(=O)N[C@@H](CCCCN)C(=O)N[C@@H](C)C(=O)N[C@@H](CCCCN)C(N)=O)NC(=O)CNC(=O)[C@H](CCCCN)NC1=O", "note": "[αS2–12(L3)] (Ac-DVKMKGDSKAK-NH2; lactam 3-7)", "values": [{"measurement": "Effect on lipid-induced αS1–140 aggregation (ThT)", "setting": "[1]", "value": "most effective inhibition; also recorded: greatest inhibition of αS1–140 aggregation"}, {"measurement": "Fractional helicity (fH) with DMPS", "setting": "[2]", "value": 2.9, "unit": "%"}, {"measurement": "Fractional helicity (fH) no DMPS", "setting": "[2]", "value": 14.6, "unit": "%"}]}, {"smiles": "CSCC[C@@H]1NC(=O)[C@H](Cc2ccccc2)NC(=O)[C@H](C(C)C)NC(=O)[C@@H](NC(C)=O)CCCCNC(=O)C[C@@H](C(=O)NCC(=O)N[C@@H](CC(C)C)C(=O)N[C@@H](CO)C(=O)N[C@@H](CCCCN)C(=O)N[C@@H](C)C(=O)N[C@@H](CCCCN)C(N)=O)NC1=O", "note": "[αS2–12(L1)] (Ac-KVFMDGLSKAK-NH2; lactam 1-5)", "values": [{"measurement": "Effect on lipid-induced αS1–140 aggregation (ThT)", "setting": "[1]", "value": "enhanced αS aggregation"}, {"measurement": "Fractional helicity (fH) with DMPS", "setting": "[2]", "value": 0.0, "unit": "%"}, {"measurement": "Fractional helicity (fH) no DMPS", "setting": "[2]", "value": 0.0, "unit": "%"}]}, {"smiles": "CSCC[C@H](NC(=O)[C@H](Cc1ccccc1)NC(=O)[C@@H](NC(=O)[C@H](CC(=O)O)NC(C)=O)C(C)C)C(=O)N[C@@H](CCCCN)C(=O)NCC(=O)N[C@H]1CCCCNC(=O)C[C@@H](C(N)=O)NC(=O)[C@H](C)NC(=O)[C@H](CCCCN)NC(=O)[C@H](CO)NC1=O", "note": "[αS2–12(L7)] (Ac-DVFMKGKSKAD-NH2; lactam 7-11)", "values": [{"measurement": "Effect on lipid-induced αS1–140 aggregation (ThT)", "setting": "[1]", "value": "enhanced αS aggregation"}, {"measurement": "Fractional helicity (fH) with DMPS", "setting": "[2]", "value": 16.8, "unit": "%"}, {"measurement": "Fractional helicity (fH) no DMPS", "setting": "[2]", "value": 15.8, "unit": "%"}]}]}
